Experiments:
[1] = Impedance study of corrosion inhibition, equivalent circuit model CPE with Diffusion; settings: for IE: impedance, C-steel, 1M HCl, 298 K; for % inhibition from Impedance: summary Table 16, C-steel in 1 M HCl; for % Inhibition from Impedance studies: summary Table 17, C-steel in 1 M HCl
Source text: (§1) In an embodiment, the thus formed CuL copper complex can undergo anticorrosion studies by adding the obtained CuL copper complex to hydrochloric acid (for example, at 1M) using a C-steel electrode.
(§2) The % inhibition of Spiro compounds SP34, SP37 and SP311 and their copper complexes for C-steel in hydrochloric acid solution (1M) were computed by Impedance and Polarization studies. The model used for the electrochemical equivalent circuit to fit the impedance for anticorrosion studies of Carbon steel (C-steel) by Spiro inhibitors was CPE with diffusion as shown in FIG. 7.

[2] = Polarization (Tafel) study of corrosion inhibition; settings: for IE: polarization, C-steel, 1M HCl, 298 K; for % inhibition from Tafel: summary Table 16, C-steel in 1 M HCl; for % Inhibition from Tafel plots: summary Table 18, C-steel in 1 M HCl
Source text: as §1, §2

**Q.** Which results are given for `Cc1[nH]nnc1C(=O)[C@H]1[C@H](c2ccc(Cl)cc2Cl)C2CSCN2[C@]12C(=O)Nc1cc(Cl)ccc12` (stereo partly drawn) [SP 34, (3R,6'S,7′R)-6-chloro-7′-(2,4-dichlorophenyl)-6′-(5-methyl-1H-1,2,3-triazole-4-carbonyl)-1′,6′,7′,7a′-tetrahydro-3′H-spiro[indoline-3,5′-pyrrolo[1,2-c]thiazol]-2-one]?
**A.** IE ([1]; 0.037 mM): 82.48%; IE ([1]; 0.075 mM): 94.25%; IE ([1]; 0.112 mM): 97.37%; % inhibition from Impedance [1]: 96.97%; % Inhibition from Impedance studies [1]: 96.97%; IE ([2]; 0.037 mM): 90.5%; IE ([2]; 0.075 mM): 97.1%; IE ([2]; 0.112 mM): 98.6%; % inhibition from Tafel [2]: 98.6%; % Inhibition from Tafel plots [2]: 98.6%

**Q.** For `Cc1[nH]nnc1C(=O)[C@H]1[C@H](c2cccc(Br)c2)C2CSCN2[C@]12C(=O)Nc1cc(Cl)ccc12` (stereo partly drawn) [SP 311, (3R,6'S,7′R)-7′-(3-bromophenyl)-6-chloro-6′-(5-methyl-1H-1,2,3-triazole-4-carbonyl)-1′,6′,7′,7a′-tetrahydro-3′H-spiro[indoline-3,5′-pyrrolo[1,2-c]thiazol]-2-one], which IE ([1]; 0.036 mM) is on record?
**A.** Its IE is 14.26%.

**Q.** And the IE ([1]; 0.073 mM)?
**A.** The IE was 8.96%.

**Q.** And the IE ([1]; 0.109 mM)?
**A.** The IE was 62.89%.

**Q.** What about the “% inhibition from Impedance” value [1] of the same compound?
**A.** The value was 62.89%.

**Q.** And the “% Inhibition from Impedance studies” value [1]?
**A.** The value was 62.89%.

**Q.** What about the IE ([2]; 0.036 mM) of the same compound?
**A.** Its IE is −1.5%.

**Q.** And the IE ([2]; 0.073 mM)?
**A.** The IE was 13.0%.

**Q.** And the IE ([2]; 0.109 mM)?
**A.** The IE was 81.6%.

**Q.** And the “% inhibition from Tafel” value [2]?
**A.** The value was 81.6%.

**Q.** And the “% Inhibition from Tafel plots” value [2]?
**A.** Its value is 81.6%.

**Q.** For `Cc1[nH]nnc1C(=O)[C@H]1[C@H](c2cccc([N+](=O)[O-])c2)C2CSCN2[C@]12C(=O)Nc1cc(Cl)ccc12` (stereo partly drawn) [SP 37, (3R,6'S,7′R)-6-chloro-6′-(5-methyl-1H-1,2,3-triazole-4-carbonyl)-7′-(3-nitrophenyl)-1′,6′,7′,7a′-tetrahydro-3′H-spiro[indoline-3,5′-pyrrolo[1,2-c]thiazol]-2-one], which IE ([1]; 0.039 mM) is on record?
**A.** The IE was 21.25%.

**Q.** And the IE ([1]; 0.078 mM)?
**A.** Its IE is 46.85%.

**Q.** And the IE ([1]; 0.117 mM)?
**A.** The IE was 56.53%.

**Q.** And the “% inhibition from Impedance” value [1]?
**A.** Its value is 56.53%.

**Q.** And the “% Inhibition from Impedance studies” value [1]?
**A.** Its value is 56.53%.

**Q.** And the IE ([2]; 0.039 mM)?
**A.** Its IE is 49.0%.

**Q.** And the IE ([2]; 0.078 mM)?
**A.** The IE was 72.7%.

**Q.** What about the IE ([2]; 0.117 mM) of the same compound?
**A.** The IE was 82.1%.

**Q.** What about the “% inhibition from Tafel” value [2] of the same compound?
**A.** The value was 82.1%.

**Q.** What about the “% Inhibition from Tafel plots” value [2] of the same compound?
**A.** The value was 82.1%.
